These results are taken from patent US20170240566A1, “AMINO-SUBSTITUTED ANNULATED PYRIMIDINES AND USE THEREOF” (Bayer Pharma Aktiengesellschaft, priority 2014, published 2017).

In data set [1] the test system is recombinant guanylate cyclase reporter cell line. The experiment in a line: Effect on a recombinant guanylate cyclase reporter cell line. It is filed as cell-based. The following applies: minimum effective concentration; in some cases means of individual determinations; read-out: MEC. The procedure:
B-2. Effect on a Recombinant Guanylate Cyclase Reporter Cell Line
The cellular activity of the compounds of the invention is determined using a recombinant guanylate cyclase reporter cell line, as described in F. Wunder et al., Anal. Biochem. 339, 104-112 (2005). Representative values (MEC=minimum effective concentration) for the compounds of the invention are shown in the table below (Table 1; in some cases as means of individual determinations): […]

Data set [2] is described as follows: Solubility of substances in buffer pH 6.5. It is filed as physicochemical. The following applies: aqueous buffer, kinetic from dmso stock, PBS buffer pH 6.5, room temperature. The procedure: B-10. Determination of the Solubility of Substances in Buffer pH 6.5
40 μl of DMSO are added to 2 mg of a test substance [50 g/l]. 10 μl of this solution are removed and introduced into 990 μl of PBS buffer pH 6.5 (c=500 μg/ml). This solution/suspension is shaken at room temperature for 24 h. After 30 min of ultracentrifugation at 114 000 g, the supernatant is removed, diluted with ACN/water 8:2 and analyzed by LC-MSMS.
For calibration, likewise 10 pi are removed from the DMSO stock solution and introduced into 823 μl of DMSO (c=600 μg/ml). Quantification takes place using a five-point calibration curve.

In data set [3] the target is T1, human phosphodiesterase 5 (PDE 5) (Homo sapiens, UniProt O76074).
T1 construct: PDE 5 preparations are obtained from human platelets by disruption; from tissue; host or cells: human platelets
The data set is described as follows: Inhibition of human phosphodiesterase 5 (PDE 5). The format is biochemical. The following applies: PDE 5 preparation from human platelets; in some cases means of individual determinations. The procedure:
B-3. Inhibition of human phosphodiesterase 5 (PDE 5)
PDE 5 preparations are obtained from human platelets by disruption (Microfluidizer®, 800 bar, 3 passes), followed by centrifugation (75 000 g, 60 min, 4° C.) and ion exchange chromatography of the supernatant on a Mono Q 10/10 column (linear sodium chloride gradient, elution with a 0.2-0.3M solution of sodium chloride in buffer (20 mM Hepes pH 7.2, 2 mM magnesium chloride). Fractions having PDE 5 activity are combined (PDE 5 preparation) and stored at −80° C.
To determine their in vitro action on human PDE 5, the test substances are dissolved in 100% DMSO and serially diluted. Typically, dilution series (1:3) from 200 μM to 0.091 μM are prepared (resulting final concentrations in the test: 4 μM to 0.0018 μM). In each case 2 μl of the diluted substance solutions are placed into the wells of microtitre plates (Isoplate-96/200W; Perkin Elmer). Subsequently, 50 μl of a dilution of the above-described PDE 5 preparation are added. The dilution of the PDE 5 preparation is chosen such that during the later incubation less than 70% of the substrate are converted (typical dilution: 1:100; dilution buffer: 50 mM tris/hydrochloric acid pH 7.5, 8.3 mM magnesium chloride, 1.7 mM EDTA, 0.2% BSA). The substrate, [8-^3H] cyclic guanosine-3′,5′-monophosphate (1 μCi/μl; Perkin Elmer), is diluted 1:2000 with assay buffer (50 mM tris/hydrochloric acid pH 7.5, 8.3 mM magnesium chloride, 1.7 mM EDTA) to a concentration of 0.0005 μμCi/μl. By addition of 50 μl (0.025 μCi) of the diluted substrate, the enzyme reaction is finally started. The test mixtures are incubated at room temperature for 60 min and the reaction is stopped by adding 25 μl of a suspension of 18 mg/ml yttrium scintillation proximity beads in water (phosphodiesterase beads for SPA assays, RPNQ 0150, Perkin Elmer). The microtitre plates are sealed with a film and left to stand at room temperature for 60 min. Subsequently, the plates are analysed for 30 s per well in a Microbeta scintillation counter (Perkin Elmer). IC50 values are determined using the graphic plot of the substance concentration against percentage PDE 5 inhibition.

In brackets after ≈: the same amount, converted by molar mass.

Turning to `CC1(C)C(=O)Nc2nc(-c3nn(Cc4ncccc4F)c4ncc(F)cc34)nc(NCC(N)(CF)CF)c21` [Example 5, 4-{[2-Amino-3-fluoro-2-(fluoromethyl)propyl]amino}-2-{5-fluoro-1-[(3-fluoropyridin-2-yl)methyl]-1H-pyrazolo[3,4-b]pyridin-3-yl}-5,5-dimethyl-5,7-dihydro-6H-pyrrolo[2,3-d]pyrimidin-6-one], in data set [1], the minimal effective concentration stood at 1 µM. This molecule also gave a solubility at 24 h in data set [2] of 278 µg/mL (≈ 526 µM). Besides, the IC50 in data set [3] is 70 nM.

`Cc1nc2c(cc1F)c(-c1nc(NCC(N)(CF)CF)c3c(n1)NC(=O)C3(C)C)nn2Cc1ncccc1F` [Example 4, 4-{[2-Amino-3-fluoro-2-(fluoromethyl)propyl]amino}-2-{5-fluoro-1-[(3-fluoropyridin-2-yl)methyl]-6-methyl-1H-pyrazolo[3,4-b]pyridin-3-yl}-5,5-dimethyl-5,7-dihydro-6H-pyrrolo[2,3-d]pyrimidin-6-one]: the minimal effective concentration in data set [1] is 1 µM. In data set [2], this molecule returned a solubility at 24 h of 260 µg/mL (≈ 479 µM). In data set [3], this molecule had an IC50 of 180 nM.

For `Cc1nc2c(cc1F)c(-c1nc(NCC(N)(CF)CF)c3c(n1)NC(=O)C3(C)C)nn2Cc1ccccc1F` [Example 2, 4-{[2-Amino-3-fluoro-2-(fluoromethyl)propyl]amino}-2-[5-fluoro-1-(2-fluorobenzyl)-6-methyl-1H-pyrazolo[3,4-b]pyridin-3-yl]-5,5-dimethyl-5,7-dihydro-6H-pyrrolo[2,3-d]pyrimidin-6-one], the minimal effective concentration in data set [1] was found to be 0.1 µM. In data set [2], this molecule showed a solubility at 24 h of 5.1 µg/mL (≈ 9.4 µM). In data set [3], this molecule gave an IC50 of 160 nM.

On to `Cc1nc2c(cc1F)c(-c1nc(NCC(N)(CF)CF)c3c(n1)NC(=O)C3(C)C(F)(F)F)nn2Cc1c(F)ccc(F)c1F` (single isomer, unassigned; ent-4) [Example 14, ent-4-{[2-Amino-3-fluoro-2-(fluoromethyl)propyl]amino}-2-[5-fluoro-6-methyl-1-(2,3,6-trifluorobenzyl)-1H-pyrazolo[3,4-b]pyridin-3-yl]-5-methyl-5-(trifluoromethyl)-5,7-dihydro-6H-pyrrolo[2,3-d]pyrimidin-6-one (Enantiomer B)], for which the minimal effective concentration in data set [1] was determined as 0.1 µM. The molecule further came in with an IC50 in data set [3] of 100 nM.

In the case of `Cc1nc2c(cc1F)c(-c1nc(NCC(N)(CF)CF)c3c(n1)NC(=O)C3(C)C)nn2Cc1cccc(F)c1F` [Example 1, 4-{[2-Amino-3-fluoro-2-(fluoromethyl)propyl]amino}-2[1-(2,3-difluorobenzyl)-5-fluoro-6-methyl-1H-pyrazolo[3,4-b]pyridin-3-yl]-5,5-dimethyl-5,7-dihydro-6H-pyrrolo[2,3-d]pyrimidin-6-one], the minimal effective concentration in data set [1] turned out to be 0.3 µM. In addition, in data set [2], the solubility at 24 h worked out at 7.6 µg/mL (≈ 13.6 µM). This molecule returned an IC50 in data set [3] of 52 nM.
